According to patent US20170224679A1, “Use of CXCR2 Antagonists For The Prevention and/or Treatment of Chemotherapy Induced Peripheral Neuropathy (CIPN)” (GlaxoSmithKline Intellectual Property Development Limited, priority 2014, published 2017):

Key:
Caco-2 cell line = test: Colorectal cancer cell line proliferation assay, Caco-2; type: cell-based; conditions: Caco-2, compound alone 8.5 μM, non-significant
Procedure: Cell proliferation assay: Cells were seeded in 96-well plates (Costar) at different cell densities: HCT116, 500 cells per well; Caco-2, 1000 cells per well. Total volume of the medium was 90 μl per well. Cells were incubated for 24 hours at 37° C. and 5% CO2 incubator.
The cell proliferation rate was measured by adding 100 μl of CellTiter-Glo™ (Promega) according to the manufacturer's instructions. After 10 minutes of incubation, the cell lysates were transferred into OptiPlate-384 well, the luminescence was recorded by BioTek Synergy™ 4 Hybrid Microplate Reader with Gen5 software. All data points were generated in five replicates. Three independent experiments were performed.
Data Analysis: pIC50 values were calculated by software GraphPad Prism 5 using sigmoidal concentration-response (variable slope). All data were presented as the mean±standard error of the mean determined from three independent experiments.

Sprague-Dawley rats = test: CXCR2 antagonist effect on oxaliplatin-induced acute sensory injury rat (PWT, von Frey); type: in vivo
Procedure: If the animal withdrew or lifted the paw upon stimulation, then a hair with force immediately lower than that tested was used. If no response was observed, then a hair with force immediately higher was tested.

CXCR2 receptor [1] = biological target: T1, CXCR2 receptor (Homo sapiens, UniProt P25025); test: Human whole blood assay version ii) (CD11b, GROα stimulated); type: cell-based; set-up: Assay d) measures the cellular functional activity to the native expressed human CXCR2 in whole blood; endogenous in cells; host or cells: human whole blood (neutrophils); conditions: 33 nM GROα, neutrophil CD11b, read-out: pIC50 against the CXCR2 receptor (converted)
T1 sequence (P25025 1-360): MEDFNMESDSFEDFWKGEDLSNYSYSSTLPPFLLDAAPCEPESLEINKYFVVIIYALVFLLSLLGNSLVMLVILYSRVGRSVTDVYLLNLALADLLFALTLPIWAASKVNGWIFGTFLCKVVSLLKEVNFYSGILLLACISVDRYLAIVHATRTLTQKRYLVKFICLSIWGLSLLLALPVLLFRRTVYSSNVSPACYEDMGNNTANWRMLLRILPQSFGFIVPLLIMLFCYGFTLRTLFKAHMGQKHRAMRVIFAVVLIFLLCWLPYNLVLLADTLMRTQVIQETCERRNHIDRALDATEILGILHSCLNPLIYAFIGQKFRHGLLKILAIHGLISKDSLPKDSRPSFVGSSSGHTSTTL
Procedure: Blood was withdrawn by venipuncture from consented adults and poured into a Sterilin tube containing an anti-coagulant Heparin (10 μL/mL of blood). All the test compounds were dissolved in DMSO to 4 mM and serial diluted across the plate, 1 in 3 to provide 10 point dose response curves. The compounds were then diluted 100 fold in -PBS [Phosphate buffered saline (without Calcium Chloride and Magnesium Chloride)] after which, 1 μL was dispensed in 96 U bottom Costar plates using an FX. This was done to reduce the final DMSO concentration to 0.25% and for compounds to be screened at 10 uM final assay concentration, after addition of blood.
10 μL of blood was transferred to the compound plate using a multi-channel pipette, gently tapped and incubated for 15 minutes, at 37° C. After 15 minutes, the stimulant GROα was diluted to 100 nM in 0.1% BSA (Albumin Bovine Serum)-PBS and 5 μL is dispensed across the whole plate for a final concentration of 33 nM. The plate was gently tapped and incubated further for 15 minutes at 37° C. […]
Samples were run on a Becton and Dickinson (BD)-Acurri C6 Flow Cytometer using a HyperCyt sampling apparatus (IntelliCyt) with a flow rate 2 μL/sec. CD11 b upregulation is monitored in neutrophils and identified using a combination of both side scatter and CD16 expression.

CXCR2 receptor [2] = biological target: T1, CXCR2 receptor; test: GPCR Arrestin Assay (DiscoveRX PathHunter), CXCR2; type: cell-based; set-up: host or cells: PathHunter CHO cell lines
Procedure: Certain compounds of the invention were also tested by DiscoveRX Corporation (42501 Albrae Street, Fremont, Calif. 94538, United States) in their GPCR Arrestin Assay to determine their activity against a panel of receptors including CXCR2 and CXCR1. PathHunter CHO cell lines were expanded from freezer stocks according to standard procedures. Cells were seeded in a total volume of 20 μL into white walled, 384-well microplates and incubated at 37° C. for the appropriate time prior to testing. The cells were pre-incubated with antagonist followed by agonist challenge at the EC80 concentration. Intermediate dilution of sample stocks was performed to generate 5× sample in assay buffer. 5 μL of 5× sample was added to cells and incubated at 37° C. or room temperature for 30 minutes. […] Assay signal was generated through a single addition of 12.5 or 15 μL (50% v/v) of PathHunter Detection reagent cocktail, followed by one hour incubation at room temperature. Microplates were read following signal generation with a PerkinElmer Envision™ instrument for chemiluminescent signal detection. Compound activity was analyzed using CBIS data analysis suite (ChemInnovation, Calif.).

Structure (SMILES)	decrease of basal proliferation (Caco-2 cell line)	oxaliplatin induced mechanical allodynia (PWT) vs oxaliplatin and vehicle group (Sprague-Dawley rats; Day 3, 5, 20 and 50 mg/kg p.o. b.i.d. from Day -1)	oxaliplatin induced mechanical allodynia (PWT) vs oxaliplatin and vehicle group (Sprague-Dawley rats; Day 7, 20 and 50 mg/kg p.o. b.i.d. only)	IC50 (CXCR2 receptor [1])	selectivity for CXCR2 over CXCR1 (CXCR2 receptor [2]; GPCR Arrestin Assay e))	IC50 (CXCR2 receptor [2]; PathHunter CHO cells, agonist at EC80, read-out: pIC50 against the CXCR2 receptor (converted))
O=C(Nc1ccc(Cl)c(S(=O)(=O)N2CCNCC2)c1O)Nc1cccc(F)c1Cl [Compound of Formula (A), 1-(4-chloro-2-hydroxy-3-(piperazin-1-ylsulfonyl)phenyl)-3-(2-chloro-3-fluorophenyl)urea]	2.7±2.1%	reduced the mechanical allodynia	robust reduction of the mechanical allodynia	–	–	–
CN1CCC(C)(S(=O)(=O)c2c(Cl)ccc(NC(=O)Nc3cccc(F)c3Cl)c2O)CC1 [Compound of Formula (D), 1-(4-chloro-3-((1,4-dimethylpiperidin-4-yl)sulfonyl)-2-hydroxyphenyl)-3-(2-chloro-3-fluorophenyl)urea]	–	–	–	1580 nM	29 fold	100 nM
